Data published in PMC6267684, “Pharmacokinetic evaluation of the PNC disassembler metarrestin in wild-type and Pdx1-Cre;LSL-Kras^G12D/+;Tp53^R172H/+ (KPC) mice, a genetically engineered model of pancreatic cancer” (Cancer Chemotherapy and Pharmacology, 2018).
Read-outs that look alike come from different tables or passages of the source.

Assay: Pharmacokinetics in C57BL/6 mice after single IV and PO administration
Format: in vivo
Conditions: for Kp: liver/plasma, read-out: AUC0–∞ ratio (tissue/plasma); for AUC(0-t): read-out: AUC0–24h
Method: For pharmacokinetic studies, metarrestin solutions prepared in 30% PEG-400 and 70% (20% w:v HP-β-CD in water) solution were administered to C57BL/6 mice at 3 mg/kg IV via tail vein injection, or 3 and 10 mg/kg orally via gavage. KPC mice were additionally treated with 25 mg/kg PO via gavage. The dosing volume was 3 mL/kg for IV route and 10 mL/kg for PO route. Dosing solutions were prepared on the day of administration. Blood samples were collected at 10, 20 min, 1, 2, 4, 7 and 24 h after 3 mg/kg IV administration. After oral administration of 3 and 10 mg/kg in C57BL6 mice, blood and liver samples were collected at 10 min, 0.5, 1, 2, 3, 5, 7, 9 and 24 h post dosing (n = 3 per time point). In KPC mice, blood, pancreatic tumor, spleen and liver samples were collected at 1, 2, 3, 6, 9, 12 and 24 h after 25 mg/kg PO administration.
Blood samples were collected in K2EDTA tubes and plasma was harvested after centrifugation at 3000 rpm for 10 min. Tissue samples were weighed and flash-frozen for PK and PD mRNA expression analyses, embedded into OCT blocks for PNC determination and processed into FFPE blocks for histopathology assessment. All PK samples were stored at − 80 °C until analysis.
An ultra-performance liquid chromatography–tandem mass spectrometry (UPLC–MS/MS) method was developed to determine metarrestin concentrations in plasma and tissue samples. Mass spectrometric analysis was performed on a Waters Xevo TQ-S triple quadrupole instrument using electrospray ionization in positive mode. The separation was performed on an Acquity BEH C18 column (50 × 2.1 mm, 1.7 µ) using a Waters Acquity UPLC system with 0.6 mL/min flow rate and gradient elution. Mobile phase A was 0.1% formic acid in water, and B was 0.1% formic acid in acetonitrile (ACN). The column temperature was maintained at 60 °C. The calibration standards and quality control (QC) samples were prepared in the control blank mouse plasma and tissue homogenate. Tissues were homogenized with 3 or 6 volumes (v/w) of deionized water on the day of analysis. Proteins were precipitated from 10 µL plasma or 5 µL tissue homogenate with 200 µL ACN containing 100 ng/mL Tolbutamide as internal standard in 96-well plates. The mixture was vortexed for 2 min and centrifuged at 4000 rpm for 30 min at 4 °C. An aliquot of 150 µL supernatant was transferred to a 350-µL 96-well plate. 0.2 µL supernatant was injected for the UPLC–MS/MS analysis. Data were analyzed using MassLynx V4.1.
The pharmacokinetic parameters were calculated using the non-compartmental approach (Models 200 and 201) of the pharmacokinetic software Phoenix WinNonlin, version 6.4 (Certara, St. Louis, MO). The area under the plasma concentration vs time curve (AUC) was calculated using the linear trapezoidal method. The slope of the apparent terminal phase was estimated by log linear regression using at least three data points and the terminal rate constant (λ) was derived from the slope. AUC0–∞ was estimated as the sum of the AUC0–t (where t is the time of the last measurable concentration) and Ct/λ. The apparent terminal half-life (t½) was calculated as 0.693/λ.

[1] = C57BL/6, mouse, liver, po, 3 mg/kg, 3 mg/kg PO single dose
[2] = C57BL/6, mouse, liver, po, 10 mg/kg, 10 mg/kg PO single dose
[3] = C57BL/6, mouse, liver, 3 mg/kg PO single dose
[4] = C57BL/6, mouse, liver, 10 mg/kg PO single dose
[5] = C57BL/6, mouse, plasma, 3 mg/kg IV single dose
[6] = C57BL/6, mouse, plasma, 3 mg/kg PO single dose
[7] = C57BL/6, mouse, plasma, 10 mg/kg PO single dose

Compound `N=c1c2c(-c3ccccc3)c(-c3ccccc3)n(Cc3ccccc3)c2ncn1[C@H]1CC[C@H](O)CC1` [metarrestin, Trans-4-(7-benzyl-4-imino-5,6-diphenyl-4,7-dihydro-3H-pyrrolo[2,3-d]pyrimidin-3-yl) cyclohexanol] has a Kp [1] greater than 50, a half-life [1] of 4.7 h and a Kp [2] greater than 50. The half-life [2] was 4.1 h, the half-life (C57BL/6, mouse, plasma, intravenous, oral, 10 mg/kg, low doses of 3 and 10 mg/kg, span over groups) was 5 to 5.6 h and the half-life (C57BL/6, mouse, plasma, iv, 3 mg/kg, 3 mg/kg IV single dose) was roughly 5 h. It also gave a half-life (C57BL/6, mouse, plasma, po, 3 mg/kg, 3 mg/kg PO single dose) of 5.4 h, a bioavailability (C57BL/6, mouse, plasma, po, 10 mg/kg, single oral dose 3 and 10 mg/kg via gavage) greater than 80% and a half-life (C57BL/6, mouse, plasma, po, 10 mg/kg, 10 mg/kg PO single dose) of 5.6 h. For the same compound, the AUC(0-inf) [3] was 68600 ng·h/mL, the Cmax [3] was 5420 ng/mL and the Tmax [3] was 1 h. It also gave an AUC(0-t) [3] of 66100 ng·h/mL, an AUC(0-inf) [4] of 281000 ng·h/mL and a Cmax [4] of 21400 ng/mL. For the same compound, the Tmax [4] was 2 h, the AUC(0-t) [4] was 276000 ng·h/mL and the AUC(0-inf) [5] was 1040 ng·h/mL. The AUC(0-t) [5] was 1010 ng·h/mL, the clearance (C57BL/6, mouse, plasma, 3 mg/kg IV single dose, read-out: CLp (plasma clearance)) was 48 mL/min/kg and the Vd (C57BL/6, mouse, plasma, 3 mg/kg IV single dose, read-out: Vdss (steady-state volume of distribution)) was 17 L/kg. For the same compound, the AUC(0-inf) [6] was 871 ng·h/mL, the Cmax [6] was 55.7 ng/mL and the Tmax [6] was 2 h. The AUC(0-t) [6] was 823 ng·h/mL, the AUC(0-inf) [7] was 4790 ng·h/mL and the Cmax [7] was 349 ng/mL. For the same compound, the Tmax [7] was 2 h, the AUC(0-t) [7] was 4520 ng·h/mL and the “t 1/2” value (plasma, 3 mg/kg IV single dose, 3 mg/kg) was 5 h.
